{"source": "patent US20250312357A1", "about": "“PROCESS OF PHYTOCA[…] FORMULATION AND USE IN THE MANAGEMENT OF PAIN” (COUNCIL OF SCIENTIFIC & INDUSTRIAL RESEARCH, priority 2022, published 2025)", "key": {"[1]": {"system": "paclitaxel (PT) induced neuropathic pain", "assay": "Randall Selitto test for mechanical hyperalgesia in paclitaxel induced neuropathic (cancer) pain model", "type": "in vivo, male BALB/c mice", "settings": "paclitaxel 2 mg/kg i.p. (pain induction), all groups; FIGS. 7a and 7b", "description": "a. In-Vivo Efficacy Study in Cancer Pain Model Using the Randall Selitto Test for Assessment of Mechanical Hyperalgesia in Male BALB/c Mice\nAnimals: Male BALB/C mice of weight range 25-30 g were used for evaluation of CS-016-B1 in paclitaxel (PT) induced neuropathic pain. Animals were housed under a 12-hour light/dark cycle in a temperature (65-75° F.; ^˜18-23° C.) and humidity-controlled (40-60%) environment. They were supplied with free access to the food and water (ad libitum). Prior to initiation of study all the animals were acclimatized for one week under standard laboratory conditions, animals were drug naive with no prior procedures performed. All testing were performed from 1 to 4 p.m. […]\nDevelopment of neuropathic pain in mice: Neuropathic pain in BALB/C mice was induced by intraperitoneal (i.p.) administration of Paclitaxel (PT) at 2 mg/kg for consecutive 5 days (Sci. Rep., 2014, 4, 1). Before paclitaxel injection baseline values of pain threshold for all the animals were recorded. […]\nExperimental protocol: The present study was comprised of five experimental groups. […] Pain threshold was assessed using Randall Selitto for assessment of mechanical hyperalgesia at different time points like 0, 5th, 10th, and 15th days post dosing. […]\nRandall Selitto Test: The nociceptive withdrawal threshold was assessed by using the Randall-Selitto algesimeter (Analgesy-Meter, Ugo Basile). […]"}, "[2]": {"system": "thermal nociceptive response", "assay": "Tail flick assay for thermal nociceptive response", "type": "in vivo, female BALB/c mice", "settings": "fractions 10 mg/kg p.o., diclofenac sodium 50 mg/kg i.p.", "description": "b. In-vivo efficacy study in pain model using the tail flick Assay for assessment of thermal nociceptive response in female BALB/c mice\nTail Flick Test: Prior to starting the test, the intensity of the beam was adjusted to produce a latency of approximately 3-6 sec. The was performed three times for each animal, at 3- to 5-min intervals, and the average of the three times recorded as the average reaction time (seconds). The light beam was delivered about 15 mm from the tip of the tail for mice. To minimize the chance of tissue trauma from heat exposure, a cut-off time of 10 sec was established, at which time the animal was removed from the test (Curr. Protoc. Neurosci., 2007, 41, 8.9.1). Mice were treated with diclofenac sodium (50 mg/kg. i.p.), a standard analgesic drug, CS-016-C2-F2-F2-F2 (10 mg/kg. p.o), CS-016-C2-F2-F3-F2 (10 mg/kg, p.o). and CS-016-B2 (10 mg/kg, p.o) each group contained three animals (n=3).\nTail Flick Assay in Female BALB/c Mice. […] The data were analysed using graph-pad prism software (8.0.2). […]"}}, "data": [{"smiles": "CC(=O)O[C@H]1C(=O)[C@@]2(C)[C@H]([C@H](OC(=O)c3ccccc3)[C@]3(O)C[C@H](OC(=O)[C@H](O)[C@@H](NC(=O)c4ccccc4)c4ccccc4)C(C)=C1C3(C)C)[C@]1(OC(C)=O)CO[C@@H]1C[C@@H]2O", "note": "[paclitaxel]", "values": [{"measurement": "mechanical threshold compared with the baseline data", "setting": "[1]", "value": "significant reduction in mechanical threshold"}]}, {"smiles": "O=C(O)Cc1ccccc1Nc1c(Cl)cccc1Cl", "note": "[diclofenac sodium]", "values": [{"measurement": "latency time at 4 h relative to baseline", "setting": "[2]; 4 h after treatment", "value": "comparable to that of baseline data"}, {"measurement": "time till which the effect on latency time sustained", "setting": "[2]", "value": 3, "unit": "h"}]}]}
